# Measurements taken from US20120122727A1, “IN VITRO METHOD FOR PREDICTING WHETHER A COMPOUND IS GENOTOXIC IN VIVO” (priority 2009, published 2012).
# Tested on: primary mouse hepatocytes
# Assay: Gene expression (Affymetrix Mouse Genome 430 2.0) in primary mouse hepatocytes, true vs false GTX, 24 h and 48 h
# Conditions: log2, corrected for vehicle control
smiles,measurement,setting,value
"Nc1ccc([N+](=O)[O-])cc1N [4-NP, 4-Nitro-o-phenylenediamine]",Gene expression data AF000969 (Cadps2),24 h average,−0.6839
same,Gene expression data AF022072 (Grb10),24 h average,0.8486
same,Gene expression data AF065917 (Lif),24 h average,−0.4573
same,Gene expression data AF204959 (Cyp3a25 /// LOC622249),24 h average,−2.025
same,Gene expression data AF297615 (Ggta1),24 h average,−0.2797
same,Gene expression data AI594683 (Dmn),24 h average,−0.3517
same,Gene expression data AI596632 (Ptprg /// LOC632664),24 h average,−0.4962
same,Gene expression data AI987929 (Ndrg1),24 h average,2.65
same,Gene expression data AK004419 (Fbxl17),24 h average,−0.0775
same,Gene expression data AK005731 (1700007K13Rik),24 h average,−0.5111
same,Gene expression data AK007766 (1810044A24Rik),24 h average,−0.1697
same,Gene expression data AK007854 (1810053B23Rik),24 h average,−1.736
same,Gene expression data AK009736 (Gpr137b /// LOC664862 /// LOC673335),24 h average,1.582
same,Gene expression data AK010447 (Smyd3),24 h average,0.4967
same,Gene expression data AK014608 (4632434l11Rik),24 h average,0.2958
same,Gene expression data AK019979 (2610528E23Rik),24 h average,0.9384
same,Gene expression data AV095209 (Mthfd1l),24 h average,0.9072
same,Gene expression data AV141095 (1110033M05Rik),24 h average,0.1789
same,Gene expression data AV173571 (1700106N22Rik),24 h average,−0.003133
same,Gene expression data AV219418 (Ldhb),24 h average,−1.032
same,Gene expression data AV223474 (Zdhhc14),24 h average,−0.08437
same,Gene expression data AV298304 (Homez),24 h average,−0.5839
same,Gene expression data AV327248 (Zfp365 /// LOC674611),24 h average,−0.08917
same,Gene expression data AV377066 (9130221J18Rik),24 h average,−1.695
same,Gene expression data AW240761 (Tbc1d5),24 h average,0.02697
same,Gene expression data AW543460 (Pard3),24 h average,0.9127
same,Gene expression data AW543723,24 h average,0.6706
same,Gene expression data AW986246 (Maoa),24 h average,1.7055
same,Gene expression data BB027848 (4732466D17Rik),24 h average,−1.7858
same,Gene expression data BB043558 (9230114K14Rik),24 h average,−0.4159
same,Gene expression data BB275142 (AW456874),24 h average,−0.4184
same,Gene expression data BB308836 (Ppm1l),24 h average,0.03763
same,Gene expression data BB318221 (Zdhhc14),24 h average,0.0942
same,Gene expression data BB463610 (4632434l11Rik),24 h average,0.2106
same,Gene expression data BB526605 (Mipol1),24 h average,1.641
same,Gene expression data BB770528 (Rai2),24 h average,−1.122
same,Gene expression data BB821363 (Scfd2),24 h average,−0.219
same,Gene expression data BC004827 (Psat1),24 h average,0.5395
same,Gene expression data BC008626 (Icam1),24 h average,−2.248
same,Gene expression data BC010462 (BC010462),24 h average,−0.8654
same,Gene expression data BC012247 (Dcxr),24 h average,−1.5
same,Gene expression data BC012260 (Psmf1),24 h average,0.1189
same,Gene expression data BC015270 (Hist2h3c2),24 h average,−0.7846
same,Gene expression data BC016073 (Cdkal1),24 h average,0.3627
same,Gene expression data BC016265 (Ube2e2),24 h average,0.03433
same,Gene expression data BC019882 (Acaa1b),24 h average,−1.259
same,Gene expression data BC025501 (Aaas),24 h average,−0.2167
same,Gene expression data BC025837 (Sbk1),24 h average,−0.8181
same,Gene expression data BC025915 (Cova1),24 h average,0.3343
same,Gene expression data BC026422 (Tgm1),24 h average,−0.8176
same,Gene expression data BF719766 (Thyn1),24 h average,−0.2859
same,Gene expression data BG065754 (Ccng1),24 h average,−0.2503
same,Gene expression data BG066903 (Kif16b),24 h average,1.005
same,Gene expression data BG069873 (Gnb1l),24 h average,−0.1326
same,Gene expression data BG070887 (Gtdc1),24 h average,0.3432
same,Gene expression data BG076151 (Ppm1d),24 h average,−0.2933
same,Gene expression data BG261907 (Large),24 h average,0.3643
same,Gene expression data BI651416 (Cdc42bpg),24 h average,−0.0339
same,Gene expression data BI660702 (Ell3),24 h average,−0.609
same,Gene expression data BM198879 (Ercc5),24 h average,−0.3288
same,Gene expression data BM230508 (A030007D23Rik),24 h average,−0.6065
same,Gene expression data NM_007987 (Fas),24 h average,−1.231
same,Gene expression data NM_008522 (Ltf),24 h average,−0.3018
same,Gene expression data NM_008576 (Abcc1),24 h average,1.696
same,Gene expression data NM_011176 (St14),24 h average,−0.5717
same,Gene expression data NM_011316 (Saa4),24 h average,−0.5909
same,Gene expression data NM_012006 (Acot1),24 h average,−1.4501
same,Gene expression data NM_013866 (Zfp385),24 h average,−0.2808
same,Gene expression data NM_018770 (Igsf4a),24 h average,0.3868
same,Gene expression data NM_021451 (Pmaip1),24 h average,−1.505
same,Gene expression data NM_025770 (Atg10),24 h average,1.051
same,Gene expression data NM_028803 (Gbe1),24 h average,0.3633
same,Gene expression data NM_030697 (Ankrd47),24 h average,0.1816
same,Gene expression data NM_053168 (Trim11),24 h average,−0.1598
same,Gene expression data NM_134188 (Acot2),24 h average,−0.7637
same,Gene expression data Y15910 (Diap2),24 h average,−0.5398
same,Gene expression AA561726 average,48 h,−0.08
same,Gene expression AF000969 average,48 h,−0.8202
same,Gene expression AF022072 average,48 h,0.6062
same,Gene expression AF033112 average,48 h,0.152
same,Gene expression AF055573 average,48 h,−0.1973
same,Gene expression AF069954 average,48 h,−0.4429
same,Gene expression AF297615 average,48 h,−1.352
same,Gene expression AF335325 average,48 h,0.5071
same,Gene expression AI594683 average,48 h,−0.4763
same,Gene expression AI747296 average,48 h,−0.3288
same,Gene expression AK005731 average,48 h,−0.9581
same,Gene expression AK007854 average,48 h,−0.1411
same,Gene expression AK010447 average,48 h,0.5956
same,Gene expression AK010738 average,48 h,−0.1569
same,Gene expression AK014608 average,48 h,−0.3072
same,Gene expression AK017734 average,48 h,−1.2326
same,Gene expression AK018383 average,48 h,−0.5006
same,Gene expression AK019979 average,48 h,0.04087
same,Gene expression AV095209 average,48 h,0.6413
same,Gene expression AV141095 average,48 h,−0.1051
same,Gene expression AV173869 average,48 h,0.1411
same,Gene expression AV216768 average,48 h,−0.004067
same,Gene expression AV219418 average,48 h,0.6295
same,Gene expression AV221299 average,48 h,0.7477
same,Gene expression AV246296 average,48 h,−1.046
same,Gene expression AV251625 average,48 h,−0.1615
same,Gene expression AV254764 average,48 h,−0.4499
same,Gene expression AV327248 average,48 h,−0.01493
same,Gene expression BB009155 average,48 h,−0.6079
same,Gene expression BB027848 average,48 h,−1.954
same,Gene expression BB043558 average,48 h,−0.2736
same,Gene expression BB046347 average,48 h,−0.8045
same,Gene expression BB140436 average,48 h,2.071
same,Gene expression BB204486 average,48 h,−0.0837
same,Gene expression BB223872 average,48 h,−0.6536
same,Gene expression BB246912 average,48 h,0.3026
same,Gene expression BB275142 average,48 h,−0.1963
same,Gene expression BB458460 average,48 h,0.1645
same,Gene expression BB463610 average,48 h,0.03727
same,Gene expression BB730977 average,48 h,0.992
same,Gene expression BB743970 average,48 h,−0.1636
same,Gene expression BB770528 average,48 h,−0.9985
same,Gene expression BB781615 average,48 h,−0.7501
same,Gene expression BC003284 average,48 h,−0.5876
same,Gene expression BC004827 average,48 h,−0.2247
same,Gene expression BC005552 average,48 h,0.4521
same,Gene expression BC006713 average,48 h,−0.7469
same,Gene expression BC010318 average,48 h,0.1861
same,Gene expression BC012247 average,48 h,−0.6355
same,Gene expression BC012955 average,48 h,0.1051
same,Gene expression BC013893 average,48 h,−1.496
same,Gene expression BC017615 average,48 h,−1.535
same,Gene expression BC019379 average,48 h,−0.5665
same,Gene expression BC019882 average,48 h,−2.4942
same,Gene expression BC021352 average,48 h,−1.28
same,Gene expression BC022148 average,48 h,−1.1322
same,Gene expression BC025169 average,48 h,0.3712
same,Gene expression BC026131 average,48 h,0.2124
same,Gene expression BC027026 average,48 h,0.05273
same,Gene expression BC027121 average,48 h,−0.2406
same,Gene expression BC027185 average,48 h,−1.382
same,Gene expression BE956581 average,48 h,0.0346
same,Gene expression BF719766 average,48 h,−0.5024
same,Gene expression BG065754 average,48 h,−0.3381
same,Gene expression BG066491 average,48 h,−0.8219
same,Gene expression BG076151 average,48 h,−0.6573
same,Gene expression BG076333 average,48 h,0.8731
same,Gene expression BG797099 average,48 h,−0.06697
same,Gene expression BG967046 average,48 h,−0.6324
same,Gene expression BI651416 average,48 h,−0.02873
same,Gene expression BI966443 average,48 h,0.2259
same,Gene expression BM198879 average,48 h,−0.4213
same,Gene expression BM200015 average,48 h,−0.4429
same,Gene expression BM230508 average,48 h,−0.9731
same,Gene expression BM936480 average,48 h,−0.412
same,Gene expression BQ174991 average,48 h,0.4017
same,Gene expression L21027 average,48 h,−0.03073
same,Gene expression NM_007556 average,48 h,0.4274
same,Gene expression NM_007980 average,48 h,−1.581
same,Gene expression NM_007987 average,48 h,−0.8469
same,Gene expression NM_008522 average,48 h,−0.2393
same,Gene expression NM_008935 average,48 h,−1.002
same,Gene expression NM_009897 average,48 h,−0.01903
same,Gene expression NM_011075 average,48 h,−1.008
same,Gene expression NM_011176 average,48 h,−1.635
same,Gene expression NM_011316 average,48 h,−0.9295
same,Gene expression NM_012006 average,48 h,−0.006733
same,Gene expression NM_013642 average,48 h,1.007
same,Gene expression NM_013738 average,48 h,−1.171
same,Gene expression NM_013929 average,48 h,0.1753
same,Gene expression NM_018881 average,48 h,−0.2965
same,Gene expression NM_019738 average,48 h,−1.132
same,Gene expression NM_030697 average,48 h,−0.3339
same,Gene expression NM_053122 average,48 h,−0.09647
same,Gene expression NM_134147 average,48 h,0.01433
same,Gene expression NM_134188 average,48 h,−0.4402
same,Gene expression X62701 average,48 h,0.7376
